Reference: patent US10300058B2, “Tyrosine kinase inhibitor and uses thereof” (Xuanzhu Pharma Co., Ltd., priority 2014, dated 2019)
Read-outs that look alike come from different tables or passages of the source. Blank lines part the entries; values can stand above or below the compound they belong to.

Tests used:
[1] = Pharmacokinetics in nude mouse; assay type: in vivo; settings: female, BALB/c nude, plasma; for bioavailability: read-out: F (absolute bioavailability)
Method: Test animal: female nude mouse (BALB/c), weight: 20-25 g/mouse.
Solvent for intraveneous injection (iv): 5% DMSO+10% PEG400+85% (28% HP-β-CD)
Solvent for intragastric administration (po): 2% HPC+0.1% Tween 80
0.1283 mL and 0.1059 mL 1M hydrochloric acid solution were separately added to adjust pH to 4.
Compound 2, 27: Compound 27 (3.18 mg) and Compound 2 (3.17 mg) were weighed, respectively, and solvent for intraveneous injection was added to prepare a clear and transparent solution at a theoretical concentration of 1.0 mg/mL.
After homogeneous dispersion, a suspension at a theoretical concentration of 1.0 mg/mL was obtained.
Collection time point: 0.083 h, 0.25 h, 0.5 h, 1 h, 2 h, 4 h, 6 h, 8 h after administration.
60 μL whole blood was collected from intraocular canthus at each time point, and was centrifuged at 8000 r/min for 6 min in a low-temperature centrifuge to separate plasma; the plasma was stored in a refrigerator at −80° C.
The plasma sample of Compound 2 was analyzed by means of protein precipitation: 10 μL plasma was transferred to a 1.5 mL EP tube, 10 μL blank plasma was added, and the mixture was mixed homogeneously under vortexing. 200 μL internal standard (acetonitrile solution containing 25 ng/mL CNX-2006) was added; the resultant mixture was vortexted for 3 min, and then centrifuged at 12000 rpm for 5 min; 150 μL supernatant was accurately taken, to which 50 μL purified water was added. The resultant mixture was vortexed for 3 min and analyzed by LC-MS/MS.

[2] = test system: H1975 human non-small cell lung cancer xenograft; assay: Pharmacodynamics in vivo, H1975 xenograft tumor-bearing nude mice; design: species or system BALB/c nude mouse; settings: PO; for RTV (relative tumor volume) / TV (tumor volume) / Body weight After administration / Body weight Before administration: mean ± standard error
Source text: Genus: Rodent, Line: BALB/c nude, age: 6-8 weeks, gender: female, body weight: 18-22 g. Provider of experimental animals: Beijing Ankaiyibo Biological Technology Co. Ltd., Production license No. SCXK(Jing) 2012-0009. Quality Certificate No. 11402400000256 […] The tumor cells in logarithmic growth phase were used in tumor inoculation in vivo. […] When the tumor grew into a volume of about 100 mm^3, the animals were grouped and administered, 8 mice per group. […] Test compound solutions were prepared immediately before administration every day. [table] Vernier caliper was used to measure the volume of tumor twice a week. The long diameter and short diameter of tumor were measured. The volume was calculated by the formula: volume=0.5×long diameter×short diameter^2. According to the measurement results, relative tumor volume (RTV) and relative tumor volume increasing rate (T/C) were calculated. RTV=Vt/V0, wherein Vt is the average value of tumor volume on day t after grouping and administration, V0 is the average value of tumor volume at the day when grouping. T/C=TRTV/CRTV×100%, wherein TRTV is the RTV in the treatment group, and CRTV is the RTV in the solvent control group. […] One-Way ANOVA test was carried out by SPSS17.0 statistic software. Tumor volume was analysed in statistics among groups. P<0.05 is indicative of significant difference.

EGFR (d746-750)-T790M = EGFR (d746-750)-T790M (Homo sapiens (Human), UniProt P00533, DEL746-750/T790M); assay: Mobility Shift Assay, in vitro enzyme-inhibiting activity, EGFR (d746-750)-T790M; assay type: biochemical; settings: Table 8; Km ATP; read-out: IC50 EGFR (d746-750)-790M
Method: 1. Preparation of Reagents
2. Preparation of a Compound Solution
(1) To the second well of a 96-well plate, 5 μL 10 mM compound (dissolved in DMSO) was added, and 95 μL 100% DMSO was added to prepare 100 μL 0.5 mM compound.
(2) To other wells, 60 μL 100% DMSO was added. 20 μL compound from the second well was added to the third well, and 4-fold dilution was further performed to get 10 diluted concentrations.
(3) To the first well and the twelfth well of the 96-well plate, 100 μL 100% DMSO was separately added, and the two wells were used as control wells.
(4) 10 μL from each well of the 96-well plate was added to another 96-well plate, and 90 μL 1-fold kinase buffer was added.
(5) 5 μL from the 96-well plate was added to another 384-well plate, for example, transferred from A1 well of the 96-well plate to A1 and A2 wells of the 384-well plate, and transferred from A2 well of the 96-well plate to A3 and A4 wells of the 384-well plate, and so on.
To 384-well plate, 10 μL 2.5-fold enzyme solution was added, and incubated at room temperature for 10 min.
(5) Kinase reaction and stop
After incubation at 28° C. for a period of time (depending on kinase), 25 μL stop solution was added.
4. Data on percent conversion was read by Caliper.
(1) Data on enzyme activity was obtained by Caliper program;
(2) Inhibition rate of enzyme activity was calculated from the data on enzyme activity by the following formula: Inhibition rate(%)=(maximal value−the measured value of a test compound)/(maximal value-minimal value)×100,
wherein, the maximal value represents the measured value of DMSO control; and the minimal value represents the measured value of blank control.
(3) Calculation of IC50 value by XLFit excel.

[3] = Table 18, 10 mg/kg, QD × 18, 23 days after inoculation
[4] = Table 18, 30 mg/kg, QD × 18, 23 days after inoculation
[5] = po, 7.6 mg/kg, solid dispersed sample in pH 4.0 buffer
[6] = Table 17, 100 mg/kg, 19 days after inoculation

Sequence of EGFR (d746-750)-T790M (P00533 other isoform, or with tags, fused parts or gaps T790M/del 1-668/del 746-750 limits assumed): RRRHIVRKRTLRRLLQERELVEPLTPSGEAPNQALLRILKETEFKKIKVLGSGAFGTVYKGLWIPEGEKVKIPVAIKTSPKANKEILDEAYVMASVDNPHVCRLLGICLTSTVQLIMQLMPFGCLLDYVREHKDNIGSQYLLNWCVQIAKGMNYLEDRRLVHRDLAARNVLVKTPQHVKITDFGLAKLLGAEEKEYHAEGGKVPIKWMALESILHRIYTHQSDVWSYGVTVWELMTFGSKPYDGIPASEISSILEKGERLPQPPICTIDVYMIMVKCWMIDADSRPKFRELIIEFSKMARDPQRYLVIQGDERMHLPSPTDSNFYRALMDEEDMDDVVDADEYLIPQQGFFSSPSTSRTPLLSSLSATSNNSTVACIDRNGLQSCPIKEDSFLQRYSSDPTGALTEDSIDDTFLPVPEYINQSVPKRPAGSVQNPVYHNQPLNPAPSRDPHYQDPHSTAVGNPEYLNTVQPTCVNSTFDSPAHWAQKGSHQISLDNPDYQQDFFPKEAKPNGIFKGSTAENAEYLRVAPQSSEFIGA

AUC(0-t) ([1]; iv, 5 mg/kg): 6300 ng·h/mL | clearance ([1]; iv, 5 mg/kg): 13.2 mL/min/kg | AUC(0-t) ([1]; po, 10 mg/kg): 5660 ng·h/mL | bioavailability ([1]; po, 10 mg/kg): 48%
Structure (SMILES): C=CC(=O)Nc1cccc(Nc2nc(Nc3ccc(C4CCN(C(C)=O)CC4)cc3OC)ncc2C(F)(F)F)c1 [Compound 2, N-(3-((2-((4-(1-acetylpiperidin-4-yl)-2-methoxyphenyl)amino)-5-(trifluoromethyl)pyrimidin-4-yl)amino)phenyl)acrylamide]
T/C (relative tumor volume increasing rate) ([2]; Table 18, 10 mg/kg, QD × 18): 56.1% | TGI (tumor growth-inhibiting rate) ([2]; Table 18, 10 mg/kg, QD × 18): 43.9% | RTV (relative tumor volume) [2, 3]: 630 ± 105% | TV (tumor volume) [2, 3]: 588 ± 81 mm^3 | Body weight After administration ([2]; Table 18, 10 mg/kg, QD × 18): 22.6 ± 0.3 g | Body weight Before administration ([2]; Table 18, 10 mg/kg, QD × 18): 21.1 ± 0.4 g | T/C (relative tumor volume increasing rate) ([2]; Table 18, 30 mg/kg, QD × 18): 45.7% | TGI (tumor growth-inhibiting rate) ([2]; Table 18, 30 mg/kg, QD × 18): 54.3% | RTV (relative tumor volume) [2, 4]: 513 ± 54% | TV (tumor volume) [2, 4]: 489 ± 49 mm^3 | Body weight After administration ([2]; Table 18, 30 mg/kg, QD × 18): 22.6 ± 0.5 g | Body weight Before administration ([2]; Table 18, 30 mg/kg, QD × 18): 21.6 ± 0.4 g

IC50 (EGFR (d746-750)-T790M): 3.6 nM | AUC(0-t) ([1]; iv, 5 mg/kg): 11600 ng·h/mL | clearance ([1]; iv, 5 mg/kg): 7.17 mL/min/kg | AUC(0-t) [1, 5]: 9790 ng·h/mL | bioavailability [1, 5]: 56%
Structure (SMILES): C=CC(=O)Nc1cccc(Nc2nc(Nc3ccc(C4CCN(S(C)(=O)=O)CC4)cc3OC)ncc2C(F)(F)F)c1 [Compound 27, N-(3-((2-((2-methoxy-4-(1-(methylsulfonyl)piperidin-4-yl)phenyl)amino)-5-(trifluoromethyl)pyrimidin-4-yl)amino)phenyl)acrylamide]

IC50 (EGFR (d746-750)-T790M): 0.8 nM
Structure (SMILES): C=CC(=O)Nc1cccc(Nc2nc(Nc3ccc(N4CCC(N5CCOCC5)CC4)cc3OC)ncc2C(F)(F)F)c1 [Compound 28, N-(3-((2-((2-methoxy-4-(4-morpholinopiperidin-1-yl)phenyl)amino)-5-(trifluoromethyl)pyrimidin-4-yl)amino)phenyl)acrylamide]
T/C (relative tumor volume increasing rate) ([2]; Table 17, 100 mg/kg): 4.7% | TGI (tumor growth-inhibiting rate) ([2]; Table 17, 100 mg/kg): 95.3% | RTV (relative tumor volume) [2, 6]: 46 ± 6% | TV (tumor volume) [2, 6]: 53 ± 7 mm^3 | Body weight After administration ([2]; Table 17, 100 mg/kg): 21.5 ± 0.3 g | Body weight Before administration ([2]; Table 17, 100 mg/kg): 20.8 ± 0.4 g
